# Results taken from patent US8686041B2, “Inhibition of ornithine aminotransferase for the treatment of proliferative disorders” (Hadasit Medical Research Services & Development, Ltd., priority 2006, dated 2014).
# Legend:
# HEP3B = assay: αFP secretion by HCC cell lines with Gabaculine analogue 8; format: cell-based, human; settings: 48 hours
# Description: (§1) 1×10^5 cells/well of each of Hep3b and HepG2 hepatocellular carcinoma cell lines were plated in triplicate and incubated at 37° C. Gabaculine analogue 8 was added to wells at varying concentrations (0.1 μg/ml, 1 μg/ml, 10 μg/ml and 50 μg/ml). Cells returned to incubator for further incubation of 48 hours. In the fourth day of the experiment, one ml of supernatant from each well was transferred to eppendorf tubes and analyzed for αFP concentration. αFP levels were checked using the Abbott Diagnostic AxSYM system. Encouraged by the in vitro and in vivo results of inhibiting OAT using Gabaculine, the inventors next examined the in vitro effect of a further OAT inhibitor, Gabaculine analogue 8 (LHJ-II-79), on AFP secretion from two different HCC cell lines. Therefore, Hep3b and HepG2 hepatocellular carcinoma cell lines were detached from culture dishes using trypsin-EDTA, re-plated in triplicates in 12 well culture dishes (1×10^5 cells/well) and incubated at 37° C. Gabaculine analogue 8 was added to wells at varying concentrations (0.1 μg/ml, 1 μg/ml, 10 μg/ml and 50 μg/ml). After 48 hours, cell supernatant was analyzed for AFP concentration.
# HepG2 = assay: as above; format: cell-based, human; settings: 48 hours
# Description: as §1
# [1] = 0.1-50 μg/ml, effect concentration dependent
smiles,measurement,setting,value
"Cl.NC1CC(C(=O)O)CC1=C=C(C(F)(F)F)C(F)(F)F (stereo not shown) [analogue 8, 1-carboxy-3-amino-4-bis(trifluoromethyl)vinylidene cyclopentane hydrochloride]","AFP secretion by the cells, in words",HEP3B; [1],significant reduction of AFP secretion
same,AVG results AF,"HEP3B; EXP. I, 10 ug/ml, 1:5 dil, CONTROL 42.52",37.96 ng/mL
same,AVG results AF,"HEP3B; EXP. I, 50 ug/ml, 1:5 dil, CONTROL 42.52",18.52 ng/mL
same,AVG results AF,"HEP3B; EXP. II, 0.1 ug/ml, 1:5 dil, CONTROL 13.42",12.66 ng/mL
same,AVG results AF,"HEP3B; EXP. II, 1 ug/ml, 1:5 dil, CONTROL 13.42",11.92 ng/mL
same,AVG results AF,"HEP3B; EXP. II, 10 ug/ml, 1:5 dil, CONTROL 13.42",9.63 ng/mL
same,AVG results AF,"HEP3B; EXP. II, 50 ug/ml, 1:5 dil, CONTROL 13.42",9.37 ng/mL
same,AVG results AF,"HEP3B; EXP. III, 10 ug/ml, 1:5 dil, CONTROL 11.39",10.97 ng/mL
same,AVG results AF,"HEP3B; EXP. III, 50 ug/ml, 1:5 dil, CONTROL 11.39",6.98 ng/mL
same,AVG results AF,"HEP3B; EXP. IV, 10 ug/ml, 1:2 dil, CONTROL 18.45",13.73 ng/mL
same,AVG results AF,"HEP3B; EXP. IV, 50 ug/ml, 1:2 dil, CONTROL 18.45",11.30 ng/mL
same,"AFP secretion by the cells, in words",HepG2; [1],significant reduction of AFP secretion
same,AVG results AF,"HepG2; EXP. I, 10 ug/ml, 1:100 dil, CONTROL 34.19",37.98 ng/mL
same,AVG results AF,"HepG2; EXP. I, 50 ug/ml, 1:100 dil, CONTROL 34.19",23.54 ng/mL
same,AVG results AF,"HepG2; EXP. II, 0.1 ug/ml, 1:100 dil, CONTROL 11.93",11.92 ng/mL
same,AVG results AF,"HepG2; EXP. II, 1 ug/ml, 1:100 dil, CONTROL 11.93",12.85 ng/mL
same,AVG results AF,"HepG2; EXP. II, 10 ug/ml, 1:100 dil, CONTROL 11.93",11.38 ng/mL
same,AVG results AF,"HepG2; EXP. II, 50 ug/ml, 1:100 dil, CONTROL 11.93",8.54 ng/mL
same,AVG results AF,"HepG2; EXP. III, 10 ug/ml, 1:100 dil, CONTROL 12.07",10.67 ng/mL
same,AVG results AF,"HepG2; EXP. III, 50 ug/ml, 1:100 dil, CONTROL 12.07",7.57 ng/mL
same,AVG results AF,"HepG2; EXP. IV, 10 ug/ml, 1:50 dil, CONTROL 13.32",12.74 ng/mL
same,AVG results AF,"HepG2; EXP. IV, 50 ug/ml, 1:50 dil, CONTROL 13.32",8.94 ng/mL
